Data as given in the supplement of paper PMC11451515.

Test system: SEM cells
Assay: cell viability relative to DMSO control; higher = less cytotoxic
Settings: 48 h
How it was run: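 Before seeding, each leukemia line was adapted for at least four passages in each medium. NOMO1 or SEM cells (500 cells/well) and P12-Ichikawa cells (1000 cells/well) went into 1536-well plates at 5 μl, then received library compounds in DMSO by pin dosing across 11 threefold concentrations, 47 μM to 0.79 nM. Readout was CellTiter-Glo One luminescence after 48 h at 37°C, and viability is given as a per-plate percentage of DMSO wells, with cell-free wells as background.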

[1] = HPLM + 10% dialyzed FBS, 0.000781 µM
[2] = HPLM + 10% dialyzed FBS, 0.00234 µM
[3] = HPLM + 10% dialyzed FBS, 0.00702 µM
[4] = HPLM + 10% dialyzed FBS, 0.0211 µM
[5] = HPLM + 10% dialyzed FBS, 0.0632 µM
[6] = HPLM + 10% dialyzed FBS, 0.19 µM
[7] = HPLM + 10% dialyzed FBS, 0.569 µM
[8] = HPLM + 10% dialyzed FBS, 1.71 µM
[9] = HPLM + 10% dialyzed FBS, 5.12 µM
[10] = HPLM + 10% dialyzed FBS, 15.4 µM
[11] = HPLM + 10% dialyzed FBS, 46.1 µM
[12] = RPMI 5 mM glucose + 10% FBS, 0.000781 µM
[13] = RPMI 5 mM glucose + 10% FBS, 0.00234 µM
[14] = RPMI 5 mM glucose + 10% FBS, 0.00702 µM
[15] = RPMI 5 mM glucose + 10% FBS, 0.0211 µM
[16] = RPMI 5 mM glucose + 10% FBS, 0.0632 µM
[17] = RPMI 5 mM glucose + 10% FBS, 0.19 µM
[18] = RPMI 5 mM glucose + 10% FBS, 0.569 µM
[19] = RPMI 5 mM glucose + 10% FBS, 1.71 µM
[20] = RPMI 5 mM glucose + 10% FBS, 5.12 µM
[21] = RPMI 5 mM glucose + 10% FBS, 15.4 µM
[22] = RPMI 5 mM glucose + 10% FBS, 46.1 µM
[23] = RPMI 5 mM glucose + 10% dialyzed FBS, 0.000781 µM
[24] = RPMI 5 mM glucose + 10% dialyzed FBS, 0.00234 µM
[25] = RPMI 5 mM glucose + 10% dialyzed FBS, 0.00702 µM
[26] = RPMI 5 mM glucose + 10% dialyzed FBS, 0.0211 µM
[27] = RPMI 5 mM glucose + 10% dialyzed FBS, 0.0632 µM
[28] = RPMI 5 mM glucose + 10% dialyzed FBS, 0.19 µM
[29] = RPMI 5 mM glucose + 10% dialyzed FBS, 0.569 µM
[30] = RPMI 5 mM glucose + 10% dialyzed FBS, 1.71 µM
[31] = RPMI 5 mM glucose + 10% dialyzed FBS, 5.12 µM
[32] = RPMI 5 mM glucose + 10% dialyzed FBS, 15.4 µM
[33] = RPMI 5 mM glucose + 10% dialyzed FBS, 46.1 µM

| SMILES | cell viability [1] [%] | cell viability [2] [%] | cell viability [3] [%] | cell viability [4] [%] | cell viability [5] [%] | cell viability [6] [%] | cell viability [7] [%] | cell viability [8] [%] | cell viability [9] [%] | cell viability [10] [%] | cell viability [11] [%] | cell viability [12] [%] | cell viability [13] [%] | cell viability [14] [%] | cell viability [15] [%] | cell viability [16] [%] | cell viability [17] [%] | cell viability [18] [%] | cell viability [19] [%] | cell viability [20] [%] | cell viability [21] [%] | cell viability [22] [%] | cell viability [23] [%] | cell viability [24] [%] | cell viability [25] [%] | cell viability [26] [%] | cell viability [27] [%] | cell viability [28] [%] | cell viability [29] [%] | cell viability [30] [%] | cell viability [31] [%] | cell viability [32] [%] | cell viability [33] [%] |
| --- | --- | --- | --- | --- | --- | --- | --- | --- | --- | --- | --- | --- | --- | --- | --- | --- | --- | --- | --- | --- | --- | --- | --- | --- | --- | --- | --- | --- | --- | --- | --- | --- | --- |
| COc1cc(C)c(Sc2cnc(NC(=O)c3ccc(CNC(C)C(C)C)cc3)s2)cc1C(=O)N1CCN(C(C)=O)CC1 (configuration not stated) | 119 | 134 | 124 | 118 | 96.6 | 105 | 96.2 | 104 | 81.7 | 42 | 108 | 115 | 135 | 111 | 129 | 109 | 112 | 110 | 112 | 73.9 | 43.4 | 121 | 124 | 141 | 116 | 118 | 121 | 118 | 109 | 102 | 79.9 | 49.7 | 132 |
| COC1=CC=C(C=C1O)C/2=C/C(=O)C3=C(O2)C=C(O[C@@H]4O[C@H](CO[C@@H]5O[C@@H](C)[C@H](O)[C@@H](O)[C@H]5O)[C@@H](O)[C@H](O)[C@H]4O)C=C3O | 95.1 | 103 | 106 | 114 | 124 | 108 | 122 | 118 | 102 | 129 | 113 | 115 | 108 | 107 | 111 | 122 | 113 | 100 | 106 | 85.9 | 105 | 103 | 102 | 103 | 111 | 102 | 123 | 111 | 112 | 114 | 93.8 | 101 | 99.2 |
| C[C@]12CC[C@H]3[C@@H](CCC/4=C/C(=O)CC[C@]34C)[C@@H]1CC[C@@H]2OC(=O)CCC5CCCC5 | 90 | 92.3 | 99.1 | 102 | 104 | 99.9 | 95.6 | 104 | 101 | 97.1 | 111 | 99.7 | 86.2 | 109 | 105 | 122 | 115 | 131 | 101 | 124 | 98.8 | 94.6 | 99.5 | 105 | 101 | 113 | 104 | 104 | 108 | 121 | 124 | 90.6 | 109 |
| C[C@@H](O)[C@@H]1NC(=O)[C@H](CCCCN)NC(=O)[C@@H](Cc2c[nH]c3ccccc23)NC(=O)[C@H](Cc2ccccc2)NC(=O)[C@@H](NC(=O)[C@H](N)Cc2ccccc2)CSSC[C@@H](C(=O)N[C@H](CO)[C@@H](C)O)NC1=O | 71.3 | 83.6 | 87.8 | 91 | 99 | 78.3 | 83.4 | 91.2 | 97.5 | 97.7 | 84.6 | 67.4 | 94.4 | 83.2 | 105 | 90.6 | 55.5 | 82.6 | 91.6 | 101 | 90.4 | 70.4 | 64.8 | 81 | 84.5 | 86.1 | 78.7 | 75.1 | 81.7 | 74.7 | 97.1 | 85.6 | 67.3 |
| COc1ncc(-c2ccc3c(Nc4cc(Oc5cc(F)cc(F)c5)cc(C(=O)O)c4)c([S+](=O)([O-])NC4CC4)cnc3c2)c(OC)n1 | 90.4 | 78.2 | 77.5 | 86 | 85.2 | 79.4 | 88.1 | 82.2 | 75.5 | 78 | 71.5 | 135 | 107 | 117 | 133 | 130 | 119 | 138 | 100 | 109 | 119 | 113 | 102 | 83.5 | 79.7 | 88.6 | 85 | 89.7 | 97.5 | 75.4 | 82.1 | 104 | 67.9 |
| CCN1CCN(C(=O)Cc2ccc(Nc3ncc(F)c(Nc4ccc(C(=O)Nc5ccccc5Cl)cc4)n3)cc2)CC1 | 79.1 | 90.8 | 97.2 | 111 | 109 | 107 | 108 | 83.1 | 61.2 | 33.6 | 27.6 | 81.8 | 108 | 103 | 108 | 118 | 105 | 101 | 82.4 | 58.8 | 11.5 | 8.62 | 80.4 | 89.3 | 111 | 97.6 | 116 | 118 | 101 | 81.6 | 54.4 | 19.1 | 14.6 |
| CN1CCN(CCOc2cc(OC3CCOCC3)c3c(Nc4c(Cl)ccc5c4OCO5)ncnc3c2)CC1 | 106 | 119 | 115 | 118 | 122 | 126 | 113 | 116 | 78.4 | 61.6 | 30.3 | 121 | 120 | 128 | 110 | 128 | 109 | 85.5 | 109 | 62.9 | 34.3 | 19.7 | – | – | – | – | – | – | – | – | – | – | – |
| OCc1ccc(-c2ccc(-c3ccc(CO)s3)o2)s1 | 117 | 118 | 94.3 | 115 | 107 | 103 | 104 | 103 | 88.6 | 77.7 | 93.8 | 87.3 | 105 | 83.8 | 81.5 | 79.1 | 87.8 | 79.3 | 80.6 | 77.1 | 61.3 | 66.7 | 114 | 124 | 95.7 | 113 | 119 | 105 | 110 | 99.4 | 83.9 | 85.8 | 114 |
| CCOC(=O)\C1=C\[C@@H](OC(CC)CC)[C@H](NC(C)=O)[C@@H](N)C1 | 73.2 | 82.3 | 95.9 | 97.5 | 77.9 | 102 | 91.4 | 70.8 | 101 | 96.8 | 56 | 77.6 | 85.1 | 93.3 | 99.1 | 85 | 92.7 | 96.8 | 78.8 | 88.8 | 111 | 89.3 | 75.6 | 82.7 | 92.3 | 84.9 | 75.5 | 98.2 | 102 | 73.7 | 97.7 | 104 | 68.3 |
| CC1(C)C(N(O)C(=O)Nc2ccc(Cl)cc2)N(c2ccc(Cl)cc2)C(=O)N1CC(=O)N/N=C/C=C/c1ccc([N+](=O)[O-])o1 (configuration not stated) | 128 | 117 | 120 | 119 | 122 | 81.4 | 110 | 117 | 52.7 | 107 | 3.81 | – | – | – | – | – | – | – | – | – | – | – | 114 | 115 | 111 | 113 | 121 | 91.6 | 104 | 99.1 | 30.9 | 80.8 | 2.64 |
| COc1ccc2cc1Oc1ccc(cc1)C[C@H]1c3cc(c(OC)cc3CCN1C)Oc1c(OC)c(OC)cc3c1[C@H](C2)N(C)CC3 | 123 | 120 | 135 | 107 | 111 | 123 | 108 | 82.6 | 130 | 102 | 86.8 | 124 | 122 | 115 | 144 | 127 | 126 | 120 | 88.9 | 116 | 105 | 72.5 | 125 | 117 | 113 | 125 | 107 | 135 | 105 | 95.6 | 114 | 89.5 | 64 |
| C1CCN2C[C@H]3C[C@H](\C=C/4CCCN[C@@H]34)[C@H]2C1 | 91.7 | 108 | 105 | 107 | 115 | 115 | 113 | 108 | 101 | 123 | 112 | 95.2 | 105 | 89.2 | 118 | 103 | 110 | 102 | 96 | 95.7 | 118 | 120 | 99.6 | 102 | 109 | 127 | 103 | 117 | 103 | 104 | 95.8 | 122 | 122 |
| N=C1N[C@H]2[C@H](CS[C@H]2CCCCC(=O)O)N1 | 80.4 | 109 | 91.8 | 97.2 | 111 | 108 | 25.3 | 112 | 117 | 112 | 109 | 87.6 | 115 | 108 | 106 | 107 | 107 | 15.4 | 115 | 110 | 115 | 121 | 108 | 105 | 111 | 118 | 117 | 101 | 18.4 | 121 | 122 | 124 | 128 |
